Assay results as given in patent US20160303112A1 (Laguna Pharmaceuticals, Inc., priority 2013, published 2016).

Key:
cardiac arrhythmia = experiment: Conversion to normal sinus rhythm in individual patients (Example 2); assay type: in vivo, human; conditions: second patient, supraventricular tachycardia, 200 mg + 200 mg
Procedure: Accordingly a further dose was required and administered to the patient. […] Wherein the patient is instructed to utilize a monitoring device with instructions on pricking the finger and providing a blood sample, for testing of the blood. Wherein the plasma concentration has not met at least 60 ng/ml, the second dose is to be taken to ensure that the patient achieves suitable plasma concentrations and converts to normal sinus rhythm.

[1] = human, in vivo, 50 mg
Text: The results are listed below in Table 7.

"pure" atrial flutter = experiment: Conversion of Atrial Flutter (Example 6); assay type: in vivo, human; conditions: any time within 24 hours, N 4
Procedure: The vanoxerine or identical appearing placebo was randomly assigned and administered in a double-blinded fashion. Definition of “pure” atrial flutter: only Atrial Flutter (no AF) seen at −30, −15, and 0 time points. Conversion at any time within 24 hours.

[2] = Daily doses for 14 days in fourteen healthy patients (Example 4); assay type: in vivo, human; conditions: 25, 75 and 125 mg daily for 14 days
Procedure: A standardized meal was served 15 minutes prior to each dosing.

[3] = Adverse events in the placebo-controlled study (Example 6); assay type: in vivo, human
Text: The vanoxerine or identical appearing placebo was randomly assigned and administered in a double-blinded fashion.

[4] = healthy subjects; cited from earlier work
[5] = Plasma concentrations after a single 300 mg dose of vanoxerine in 25 patients (Example 1); assay type: in vivo, human; conditions: low concentration group
Procedure: Each patient gave samples before administration of their dose, and then again at nine further time points, 30 minutes after administration, 1, 2, 3, 4, 6, 8, 12, and 24 hours post administration.

[6] = Plasma concentration of vanoxerine in individual arrhythmia patients (Example 2); assay type: in vivo, human
[7] = first patient, atrial fibrillation, 200 mg
[8] = second patient, supraventricular tachycardia, first 200 mg dose
[9] = third patient, premature ventricular contractions, 200 mg

SMILES: Fc1ccc(C(OCCN2CCN(CCCc3ccccc3)CC2)c2ccc(F)cc2)cc1 [Vanoxerine, 1-[2-[bis(4-fluorophenyl)methoxy]ethyl]-4-(3-phenylpropyl)piperazine]
- time of conversion to normal sinus rhythm post administration of the first dose (cardiac arrhythmia): about 6 hours
- TMax [1]: TMax 1.27 +− 0.5 hr (0.5-2.0)
- Conversion of Atrial Flutter ("pure" atrial flutter; 200 mg): 50%
- Conversion of Atrial Flutter ("pure" atrial flutter; 300 mg): 75%
- Conversion of Atrial Flutter ("pure" atrial flutter; 400 mg): 75%
- steady state serum levels versus dose [2]: disproportionately and statistically greater levels at higher doses
- number of AEs reported ([3]; 200 mg (22)): reporting 8 AEs
- number of SAE ([3]; 200 mg (22)): (1 SAE)
- number of AEs reported ([3]; 300 mg (25)): reporting 12 AEs
- number of AEs reported ([3]; 400 mg (25)): 23 AEs
- number of SAE ([3]; 400 mg (25)): (1 SAE)
- proarrhythmia ([3]; 200, 300, 400 mg): absence of proarrhythmia
- tolerability ([3]; all doses (200, 300, 400 mg)): well tolerated
- serious adverse events ([3]; one at 200 mg, one at 400 mg, neither related to the study drug): only two serious adverse events
- serum concentrations [4]: unexpected fluctuations in serum concentrations
- Highest plasma level at any time point [5]: ~40 ng/mL
- maximum concentration in the plasma [6, 7]: about 70 ng/ml
- time of maximum concentration post administration [6, 7]: 60 min
- concentration at 180 minutes ([6]; human, plasma, second patient, 180 minutes after first dose, further 200 mg given at 120 minutes): 60 ng/mL
- maximum concentration in the plasma [6, 8]: about 20 ng/ml
- time of maximum concentration post administration [6, 8]: 60 min
- maximum concentration in the plasma [6, 9]: about 150 ng/ml
- time of maximum concentration post administration [6, 9]: 60 min
